According to patent US9486402B2, “Compositions containing berberine or analogs thereof for treating rosacea or red face related skin disorders” (Derman Biomedicine Co. Ltd, priority 2009, dated 2016):

Assays:
[1] = test system: cathelicidin-induced lesions; test: Mouse model of rosacea (subcutaneous cathelicidin peptide), topical treatment; assay type: in vivo, BALB/c and C57BL/6 mice; conditions: topical formulation containing 0.1% berberine twice a day for 2 days; 4th day; vs controls (n=3 each)
Procedure: The animal model of rosacea: the animal model of rosacea was adopted from previous reported^18. Briefly, BALB/c and C57BL/6 mice, shaved 24 h before treatments, were injected subcutaneously on the back with 40 μl of cathelicdin peptide (320 μM) twice a day. Forty-eight hours after the initial injection (four injections in total), erythema and edema were observed on the injected site mimicking the clinical features of rosacea.
In our experiments, cathelicidin-injected mice were treated with or without topical berberine twice a day to observe the effect of berberine on reducing inflammation. […] The cathelicidin-injected mice were then divided into 2 groups, which were treated with berberine (n=3) or not treated with berberine (n=3; as controls), respectively, for a subsequent 2 days. The topical formulation containing 0.1% berberine was applied on the cathelicidin-induced lesions twice a day. The erythematous or inflammatory lesions lasted for more than 7 days in the control group.

[2] = test system: IL-8 release from human keratinocytes; test: Cathelicidin peptide (LL-37)-induced IL-8 release from human keratinocytes, ELISA; assay type: cell-based
Procedure: (§1) For our in vitro study, berberine (Sigma, St. Louis, Mo., USA) was dissolved in water, methanol, ethanol or dimethyl sulfoxide (DMSO). Normal human keratinocytes (Invitrogen, CA, USA) were grown in EpiLife medium (Invitrogen, CA, USA) supplemented with 0.06 mM Ca^+2, 1% EpiLife defined growth supplement, and 1% penicillin/streptomycin (Invitrogen, CA, USA). Cells were grown at 37° C. in a humidified atmosphere of 5% CO2 and 95% air. The human keratinocytes were cultured to confluence and treated with synthetic cathelicidin peptides (LL-37) (6.4 μM) for 16 h to induce inflammatory response similar to that observed in rosacea. Some of the cathelicidin-treated keratinocyte cultures were co-incubated with berberine of concentrations from 1.25 μg/ml to 12.5 μg/ml. The keratinocytes cultures treated with cathrlicidin or cathrlicidin with 1% ethanol and without berberine were used as negative controls. Supernatants were collected and placed in a sterile 96-well plate for ELISA of interleukin-8 (IL-8), interleukin-1 alpha (IL-1 alpha), and […] (VEGF) in accordance with the manufacturer's instructions (R&D Systems, MN, USA). […]
(§2) FIG. 1. […] Keratinocytes were stimulated by cathelicidin peptide (LL-37), and the release of IL-8 (FIG. 1A), IL-1 alpha (FIG. 1B) and VEGF (FIG. 1C) by the keratinocytes was evaluated by ELISA assay.

[3] = test system: IL-1 alpha release from human keratinocytes; test: Cathelicidin peptide (LL-37)-induced IL-1 alpha release from human keratinocytes, ELISA; assay type: cell-based; conditions: 1.25 μg/ml berberine; LL-37 6.4 μM, 16 h; vs cathelicidin peptide with 1% ethanol control; P<0.05
Procedure: as §1, §2

[4] = test system: VEGF release from human keratinocytes; test: Cathelicidin peptide (LL-37)-induced VEGF release from human keratinocytes, ELISA; assay type: cell-based; conditions: 1.25 μg/ml berberine; LL-37 6.4 μM, 16 h; vs cathelicidin peptide with 1% ethanol control; P<0.05
Procedure: as §1, §2

patients with rosacea = test: Open-label human clinical study on patients with rosacea; assay type: in vivo; conditions: for overall erythema severity (score 0 to 3): baseline 2.35±0.6; for overall erythema severity (score 0 to 3) / IGA score (7-point, 0 clear to 6 severe): P<0.0001 vs W0; for IGA score (7-point, 0 clear to 6 severe): baseline 4.1±1.3
Procedure: Method: an open-label clinical study was carried out to determine the efficacy of the topical berberine formulations of this invention for the treatment of rosacea and related skin disorders. Patients included in this study were diagnosed by dermatologists to have clinically defined rosacea. All patients were given 0.1% berberine gel twice a day for 6 weeks. At the time points of treatment initiation, and 2-weeks and 6-weeks after treatment, the patients were evaluated for their rosasea symptoms. The patients were not allowed to use other medications, including antibiotics, for their skin conditions. Only oral antihistamines were allowed for relief of pruritus symptoms. To evaluate the efficacy of treatment, the standard grading system for rosacea developed by the National Rosacea Society Expert Committee on the Classification and Staging of Rosacea was used^3. Additionally, the investigator's global assessment (IGA) and overall erythema severity of the patients were scored at week 0, week 2, and week 6 of berberine therapy. The IGA was expressed according to a 7-point scoring system with a range of 0 (clear) to 6 (severe). The severity of overall facial erythema and telangiectasia, respectively, was graded as ‘none’, ‘mild’, ‘moderate’, or ‘severe’ with scores from 0 to 3. The grading system used to assess overall facial erythema severity was described previously^38. Results: a total of 20 patients with rosacea (18 females and 2 males) were enrolled in this study. The mean age of the study population was 43.3 (19-85) years. The mean duration of rosacea prior to berberine treatment was 4 (1-24) years. Among the 20 patients with rosacea, 13 cases were of erythematotelangiectatic type (65%), 7 cases papulopustular type (35%), and […].

[5] = 0.1% berberine gel twice a day, end of treatment (6 weeks), 19 of the 20 patients

SMILES: COc1ccc2cc3[n+](cc2c1OC)CCc1cc2c(cc1-3)OCO2 [berberine, 5,6-dihydro-9,10-dimethoxybenzo(g)-1,3-benzodioxolo (5,6-a) quinolizinium]
- erythema and vascular dilatation [1]: significant reduced
- inhibition of cathelicidin induced inflammatory response (IL-8, IL-1 alpha, VEGF release) ([2]; 0-12.5 μg/ml, especially when concentration larger than 6.25 μg/ml): significant inhibit cathelicidin induced inflammatory response in a dose-dependent manner
- decrease of the release of IL-8 ([2]; 1.25 μg/ml berberine, LL-37 6.4 μM, 16 h, vs cathelicidin peptide with 1% ethanol control, P<0.05): 31.4%
- decrease of the release of IL-1 alpha [3]: 24.9%
- decrease of the release of VEGF [4]: 29.1%
- cases with transient itchy/stinging sensation in the area of topical medication (patients with rosacea; 0.1% berberine gel twice a day for 6 weeks, 2 cases of 20, tolerable without discontinuation): 10%
- serious adverse events (patients with rosacea; 0.1% berberine gel twice a day for 6 weeks, 20 patients): no serious adverse event
- patients with a mild (1) to none (0) erythema rating (patients with rosacea; [5]): 95%
- patients with a mild (2) to clear (0) IGA rating (patients with rosacea; [5]): 95%
- overall erythema severity (score 0 to 3) (patients with rosacea; 0.1% berberine gel twice a day, week 2): 1.5±0.5
- IGA score (7-point, 0 clear to 6 severe) (patients with rosacea; 0.1% berberine gel twice a day, week 2, 20 patients): 2.6±0.9
- overall erythema severity (score 0 to 3) (patients with rosacea; 0.1% berberine gel twice a day, week 6): 0.95±0.4
- IGA score (7-point, 0 clear to 6 severe) (patients with rosacea; 0.1% berberine gel twice a day, week 6, 20 patients): 1.6±0.8
